{
  "source": "patent US4086196A",
  "about": "“Parathyroid hormone” (Armour Pharmaceutical Company, priority 1975, dated 1978)",
  "molecules": {"B1": {"name": "BPTH-(1-84) (native): native bovine parathyroid hormone (1-84) (protein, UniProt P01268 32-115, looked up)", "Parathyroid hormone": "AVSEIQFMHNLGKHLSSMERVEWLRKKLQDVHNFVALGASIAYRDGSSQRPRKKEDNVLVESHQKSLGEADKADVDVLIKAKPQ", "modifications": "Parathyroid hormone"}},
  "key": {"[1]": {"test_system": "adenylate cyclase in rat renal cortical homogenates", "test": "In vitro rat kidney adenylate cyclase bioassay", "assay_type": "biochemical", "details": "mean potency with 95% confidence limits; against house standard Sephadex-BPTH calibrated to MRC Standard A", "experimental": "(§1) In vitro bioassays based on the activation of adenylate cyclase in rat renal cortical homogenates were carried out by the procedure of Marcus and Aurbach (Endocrinology, (1969), 85, 801-810). In vivo bioassays were performed by the method of Parsons, Reit and Robinson (Endocrinology, (1973), 92, 454-462), a procedure based on increase in the serum calcium in the chick after intravenous injection. A house standard of highly purified bovine parathyroid hormone (\"Sephadex-BPTH\") calibrated against Medical Research Council Standard A (National Institute for Medical Research, London, England) was used for both in vivo and in vitro assays. The biological activities of the synthetic HPTH-(1-34), and the native HPTH-(1-84)-peptides in the in vitro rat kidney adenylate cyclase assay and the in vivo chick hypercalcemia assay are shown in Table 2. Included for comparison are the corresponding data on the native bovine-(1-84) and the synthetic bovine-(1-34) peptides, as well as the analogue [Ala^1 ]-HPTH-(1-34)."}, "[2]": {"test_system": "serum calcium in the chick", "test": "In vivo chick hypercalcemia bioassay", "details": "mean potency with 95% confidence limits; intravenous injection; against house standard Sephadex-BPTH calibrated to MRC Standard A", "experimental": "as §1"}, "[3]": {"details": "bioassay systems in vivo and in vitro; cited from earlier work"}},
  "data": [
    {"molecule": "HPTH-(1-84) (native): native human parathyroid hormone (1-84)", "values": [
      {"measurement": "In vitro Rat kidney adenylate cyclase", "setting": "[1]", "value": "350 (275-425) MRCU/mg"}
    ]},
    {"molecule": "BPTH-(1-34): synthetic peptide corresponding to 1-34 residues of bovine parathyroid hormone [reference compound]", "values": [
      {"measurement": "In vivo Chick hypercalcemia", "setting": "[2]", "value": "7700(5200-11100) MRCU/mg"},
      {"measurement": "In vitro Rat kidney adenylate cyclase", "setting": "[1]", "value": "5400(3900-8000) MRCU/mg"},
      {"measurement": "potency relative to whole bovine parathyroid hormone", "setting": "[3]", "value": "equipotent"}
    ]},
    {"molecule": "CC[C@H](C)[C@H](NC(=O)[C@H](CCC(=O)O)NC(=O)[C@H](CO)NC(=O)[C@@H](NC(=O)[C@@H](N)CO)C(C)C)C(=O)N[C@@H](CCC(N)=O)C(=O)N[C@@H](CC(C)C)C(=O)N[C@@H](CCSC)C(=O)N[C@@H](Cc1c[nH]cn1)C(=O)N[C@@H](CC(N)=O)C(=O)N[C@@H](CC(C)C)C(=O)NCC(=O)N[C@@H](CCCCN)C(=O)N[C@@H](Cc1c[nH]cn1)C(=O)N[C@@H](CC(C)C)C(=O)N[C@@H](CC(N)=O)C(=O)N[C@@H](CO)C(=O)N[C@@H](CCSC)C(=O)N[C@@H](CCC(=O)O)C(=O)N[C@@H](CCCNC(=N)N)C(=O)N[C@H](C(=O)N[C@@H](CCC(=O)O)C(=O)N[C@@H](Cc1c[nH]c2ccccc12)C(=O)N[C@@H](CC(C)C)C(=O)N[C@@H](CCCNC(=N)N)C(=O)N[C@@H](CCCCN)C(=O)N[C@@H](CCCCN)C(=O)N[C@@H](CC(C)C)C(=O)N[C@@H](CCC(N)=O)C(=O)N[C@@H](CC(=O)O)C(=O)N[C@H](C(=O)N[C@@H](Cc1c[nH]cn1)C(=O)N[C@@H](CC(N)=O)C(=O)N[C@@H](Cc1ccccc1)C(=O)O)C(C)C)C(C)C", "note": "[HPTH-(1-34)]", "values": [
      {"measurement": "In vivo Chick hypercalcemia", "setting": "[2]", "value": "7400(5700-9700) MRCU/mg"},
      {"measurement": "In vitro Rat kidney adenylate cyclase", "setting": "[1]", "value": "1030 (930-1140) MRCU/mg"}
    ]},
    {"molecule": "CC[C@H](C)[C@H](NC(=O)[C@H](CCC(=O)O)NC(=O)[C@H](CO)NC(=O)[C@@H](NC(=O)[C@H](C)N)C(C)C)C(=O)N[C@@H](CCC(N)=O)C(=O)N[C@@H](CC(C)C)C(=O)N[C@@H](CCSC)C(=O)N[C@@H](Cc1c[nH]cn1)C(=O)N[C@@H](CC(N)=O)C(=O)N[C@@H](CC(C)C)C(=O)NCC(=O)N[C@@H](CCCCN)C(=O)N[C@@H](Cc1c[nH]cn1)C(=O)N[C@@H](CC(C)C)C(=O)N[C@@H](CC(N)=O)C(=O)N[C@@H](CO)C(=O)N[C@@H](CCSC)C(=O)N[C@@H](CCC(=O)O)C(=O)N[C@@H](CCCNC(=N)N)C(=O)N[C@H](C(=O)N[C@@H](CCC(=O)O)C(=O)N[C@@H](Cc1c[nH]c2ccccc12)C(=O)N[C@@H](CC(C)C)C(=O)N[C@@H](CCCNC(=N)N)C(=O)N[C@@H](CCCCN)C(=O)N[C@@H](CCCCN)C(=O)N[C@@H](CC(C)C)C(=O)N[C@@H](CCC(N)=O)C(=O)N[C@@H](CC(=O)O)C(=O)N[C@H](C(=O)N[C@@H](Cc1c[nH]cn1)C(=O)N[C@@H](CC(N)=O)C(=O)N[C@@H](Cc1ccccc1)C(=O)O)C(C)C)C(C)C", "note": "[[Ala^1]-HPTH-(1-34)]", "values": [
      {"measurement": "In vivo Chick hypercalcemia", "setting": "[2]", "value": "4600(3500-6000) MRCU/mg"},
      {"measurement": "In vitro Rat kidney adenylate cyclase", "setting": "[1]", "value": "4085(3550-4700) MRCU/mg"}
    ]},
    {"molecule": "B1", "values": [
      {"measurement": "In vivo Chick hypercalcemia", "setting": "[2]", "value": "2500(2100-4000) MRCU/mg"},
      {"measurement": "In vitro Rat kidney adenylate cyclase", "setting": "[1]", "value": "3000(2500-4000) MRCU/mg"}
    ]}
  ]
}
